Data as given in US9138512B2, “Implant with a surface layer having a topographic modification” (Biotronik AG, priority 2010, dated 2015).

Tests used:
[1] = test system: Human umbilical vein endothelial cells (HUVEC); assay: Time to onset of spreading of HUVEC on substrates (time-lapse microscopy); type: cell-based; conditions: HUVEC on gratings A-10, 50 μM blebbistatin, 10 μM Y27632 or 30 μM ML-7 added 30 minutes before
Experimental: To generate confluent monolayers cells were seeded on COC substrates at high density (60-70×10^4 cell/cm^2) as reported by Lampugnani et al. and cultured for three days. To measure the time to onset of spreading, cells were detached from a subconfluent cell culture and resuspended in pre-warmed medium without antibiotics. The cells were then counted, diluted to reach a concentration of 5×10^4 cells in 1 ml of medium and then seeded onto the substrates.
(§1) For contractility inhibition experiments during endothelial spreading, the cells were treated with DMSO (corresponding v/v), 30 μM ML-7, 10 μM Y27632 or 50 μM blebbistatin. The drugs were dissolved in DMSO (ML-7, blebbistatin) or in distilled water (Y27632) and added to the cells 30 minutes before starting the experiment.
Cell imaging was performed using an inverted Nikon-Ti wide-field microscope (Nikon, Jaw pan) equipped with an Orca R-2 CCD camera (Hamamatsu Photonics, Japan). After cell seeding, the topographic chip was placed under the microscope in an incubated chamber (Life Imaging Services, Switzerland), where temperature and CO2 concentration were maintained at 37° C. and 5%, respectively. Images were collected with a 20×, 0.45 NA long-distance objective (Plan Fluor, Nikon). Endothelial spreading on topographic substrates in topographic chips was recorded in parallel time-lapse movies for up to 6 different substrates (a flat control and five different gratings). Before starting the experiment, five non-overlapping positions were chosen within each substrate and stored in a position list. Immediately after cell seeding, the experiment was started to automatically acquire a differential interference contrast (DIC) image at each saved position with a time resolution of 1 minute for a total of one or two hours. Focal drift during the experiments was eliminated using the microscope's PFS autofocus system. At the end of the experiment, the resulting time-lapses were converted into a single 8 bit movie for each imaging field under analysis.
(§2) Collected movies were loaded into ImageJ (National Institutes of Health, USA) and analyzed as follows: In a first step, movies acquired on patterned substrates were filtered by Fast Fourier Transform (FFT). This procedure eliminates the scattering generated by the gratings. The time to onset of spreading on the respective substrates was then measured for each cell detected within all parallel time-lapses acquired. […] A mean time to onset of spreading was calculated for each substrate under analysis by averaging the values measured for all individual cells. HUVEC alignment to the gratings was measured for all cells detected in the last frame of each recorded movie. […]

[2] = test system: Human umbilical vein endothelial cells (HUVEC); assay: HUVEC alignment to the gratings (contact guidance); type: cell-based; conditions: HUVEC on gratings A-10; 50 μM blebbistatin or 10 μM Y27632
Experimental: as §1
Cell imaging was performed using an inverted Nikon-Ti wide-field microscope (Nikon, Jaw pan) equipped with an Orca R-2 CCD camera (Hamamatsu Photonics, Japan). […] Endothelial spreading on topographic substrates in topographic chips was recorded in parallel time-lapse movies for up to 6 different substrates (a flat control and five different gratings). […]
as §2, with “This procedure eliminates the scattering generated by the gratings.” left out

| Compound | effect of inhibitor on time to onset of spreading / spreading [1] | average alignment of inhibitor-treated cells to gratings [2] [°] | effect of inhibitor on time to onset of spreading / spreading ([1]; listed as ML7) |
| --- | --- | --- | --- |
| Cc1ccc2c(c1)C(=O)C1(O)CCN(c3ccccc3)C1=N2 (stereo not drawn) [Blebbistatin] | no effect | 26.5±6.5 | – |
| O=S(=O)(c1cccc2c(I)cccc12)N1CCCNCC1 [ML-7] | No spreading could be measured | – | completely ablates HUVEC spreading |
| C[C@@H](N)[C@H]1CC[C@H](C(=O)Nc2ccncc2)CC1 [Y27632] | no effect | 24.7±6.4 | – |
